Key:
[1] = Pharmacokinetics: plasma concentration after oral administration to rats; format: in vivo, rat; details: 10 mg/kg; for AUC(0-inf) / Cmax: Crl:CD(SD) (Sprague-Dawley), male rat (Crl: CD (SD)), plasma
Procedure: The required amounts of compounds were weighed, and drug suspensions were prepared in 0.5% hydroxypropyl methylcellulose. The number of rats in each group was two, and each drug suspension was administered orally to each male rat (Crl: CD (SD)) using an oral sonde (the dose of the compound was 10 mg/kg). At each blood collection point (0.5, 1, 2, 4, 8, and 24 hours after administration), blood was collected from the jugular vein using a syringe and a needle (the anticoagulant was heparin sodium). The collected blood was centrifuged (13000 rpm, 2 min, 4° C.) to prepare plasma, followed by deproteinization. Thereafter, the concentration of the compound in the plasma was measured by LC/MS/MS (ICMS-8040 (Shimadzu Corporation) or API 4000 (AB Sciex), IC: 30-A and 20-A series (Shimadzu Corporation) or Waters Acquity (Waters Corporation)).

ND3 neuronal cell line = experiment: Measurement of nerve growth stimulation effect (neurite bearing assay, neurite length assay, number of cells); format: cell-based
Method in brief: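 ND3 cells were exposed 6 h to compounds in DMEM with 0.1% BSA (0.1% DMSO final), in duplicate. Neurite-bearing fraction (neurite longer than cell-body diameter) and neurite length per cell were scored by imaging and expressed relative to compound 24 maximum. Cell number was relative to DMSO wells; data with relative count <0.5 were excluded.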

[2] = test system: streptozotocin (STZ)-induced DM model SD rats; experiment: Evaluation of drug efficacy in diabetes mellitus (DM) rat model (bladder function, residual urine volume); format: in vivo; details: oral twice a day for 4 weeks
Procedure: To examine the effect of the compound in a diabetes mellitus model, bladder function was analyzed by […] based on the method of Saitoh et al. (European Journal of Pharmacology 501 (2004) 143-149).
A streptozotocin (STZ) solution obtained by dissolving STZ in a citrate buffer solution (0.1 M citric acid, pH of 4.2) to a concentration of 32.5 mg/mL was prepared, and administered intraperitoneally (65 mg/kg) to SD rats to induce DM models. The same procedure was performed on sham rats except that a citrate buffer solution was used in place of the STZ solution.
On the day after the model production and 4 weeks later, a blood sample was taken from the tail vein with the rats awake to measure the blood glucose level. […] Individuals with a blood glucose level of 300 mg/dL or more on the day after the production of the model and 4 weeks later were determined to be established DM models and used in subsequent operations. […]
A pressure transducer (DX-360, Nihon Kohden Kogyo Co., Ltd.) and an infusion pump (TE-331S, Terumo Corporation) were connected via a three-way valve to the other end of a catheter inserted into the bladder. […] The volume of urination was automatically measured using an electronic balance (GX-200, A&D Company Limited) set directly under the holding cage, and recorded continuously on a computer using a PowerLab (sampling rate: 20/sec). […]

[3] = 6 hours, relative cell number, DMSO well = 1

Structure (SMILES)	AUC(0-inf) [1] [µM·h]	Cmax [1] [nM]	viability at 1 µM (ND3 neuronal cell line; [3]) [%]	viability at 3 µM (ND3 neuronal cell line; [3]) [%]	viability at 5 µM (ND3 neuronal cell line; [3]) [%]	viability at 10 µM (ND3 neuronal cell line; [3]) [%]	viability at 30 µM (ND3 neuronal cell line; [3]) [%]	improvement in area under the curve (AUC) as compared to the compound 4 ([1]; rat) [times]	improvement in maximum blood concentration Cmax as compared to the compound 4 ([1]; rat) [times]	drug efficacy (residual urine volume, FIG. 1) as compared to the compound 4 [2]	viability at 100 µM (ND3 neuronal cell line; 100 μM, 6 hours, relative cell number, DMSO well = 1) [%]	number of relative cells (ND3 neuronal cell line; 1 to 100 μM)
CC1=C(CCCCCCCCCCCCCCCO)C(C)(C)CCC1=O [Compound 4, 3-(15-hydroxypentadecyl)-2,4,4-trimethylcyclohex-2-en-1-one, reference compound]	0.003	2	103	92	92	101	19	–	–	–	–	–
COCCCCCCCCCCCCCCCC1=C(C)C(=O)CCC1(C)C [Compound 24, 3-(15-methoxypentadecyl)-2,4,4-trimethylcyclohex-2-en-1-one]	5.9	2200	106	101	94	92	96	≥ 1900	≥ 1100	remarkable drug efficacy	92	≥ 0.5
